# Results reported in patent US11266149B2, “Herbicidal compositions” (University of Durham, priority 2016, dated 2022).
# “Also recorded” adds a separate entry of the source.
# Key:
# [1] = tested on: phenylalanine ammonia-lyase (PAL); settings: Buckwheat PAL inhibition; cited from earlier work
# [2] = tested on: Arabidopsis plants; test: Spray treatment of Arabidopsis plants; assay type: in vivo, Arabidopsis thaliana
# Method: (§1) Plant material—Arabidopsis thaliana ecotype Columbia-0 was used in all experiments that utilised Arabidopsis. For spray experiments, many seeds were sown in compost inside pots with a base area of […]. The plants were treated with herbicide formulations by spraying when they were 2-3 weeks old. To obtain leaf discs, individual plants were sown in single pots and grown for 4 weeks. Leaf discs of 1-cm diameter were cored from fully expanded leaves. Glyphosate-resistant and susceptible biotypes of Conyza sumatrensis [(Retz.) E. Walker] were obtained from an olive grove in Italy. For spraying experiments, many plants were sown in compost inside pots with a base area of 81 cm^2. Plants were spray-treated at 2 weeks from sowing. For leaf disc experiments, individual plants were sown in single pots and grown for 8 weeks before coring 1-cm diameter leaf discs from fully expanded leaves. All plants were grown in a 16 h photoperiod (˜200 μmol·m^−2·s^−1) at 22° C.
# (§2) Chemicals—Shikimic acid and pure glyphosate were purchased from Sigma-Aldrich (Dorset, UK). These were used to make stock solutions in water that were adjusted to pH 5.5 and used for treatment of leaf discs. Shikimate-3-phosphate trisodium salt was purchased from Santa Cruz Biotechnology (Dallas, Tex.). Gallup® 360 (Barclay Chemicals Manufacturing Ltd, Dublin, Ireland), a formulation of 360 g/L glyphosate, was used for spray treatments after diluting down to the desired rate.
# (§3) Treatments—Leaf discs of 1 cm-diameter were cored from plants and floated on 10 mL solutions inside Petri dishes. A minimum of 5 replicate discs per treatment arising from 5 independent plants were used. For dark incubation, the Petri dishes were wrapped in aluminium foil to exclude light. Leaf discs were harvested at time-points indicated in the Figure legends for photographing or for shikimic acid analysis. For spray treatments, glyphosate was formulated in 3 mL with enough Gallup® to achieve the desired rate on a surface area of 36 cm^2 or 81 cm^2 pots. A commercial herbicide enhancer oil Activator-G™ (Agrigem Ltd., Market Rasen, UK) was added as an adjuvant to spray at a final rate of 1 L/ha. Shikimate-3-phosphate was added to a final concentration of 500 μM in the 3 mL. Control plants were sprayed with water containing Activator-G only.
# Next we turned our attention to the inexplicable retardation of shikimate conversion to shikimate-3-phosphate during exposure to glyphosate. We proposed the hypothesis that shikimate-3-phosphate is a critical component required for glyphosate to be phytotoxic and that glyphosate-susceptible plants attempt to block its formation in order to avoid death. We sprayed 2-week-old Arabidopsis plants with a formulation of glyphosate at different rates with or without shikimate-3-phosphate as an additive. […]
# [3] = 25° C.; cited from earlier work
# [4] = tested on: Conyza sumatrensis leaf discs; test: Leaf discs floated on glyphosate solutions, phytotoxicity / cell death; assay type: cell-based
# Method: as §1, §2, §3
# While studying programmed cell death, we noted that light is a crucial factor in the activation of plant cell death (Chivasa et al., 2009; Wang et al., 2012; Smith et al., 2014). We wondered if deprivation of light could also block glyphosate toxicity. To investigate this, we used a previously published in vitro assay (Teaster and Hoagland, 2013) in which leaf discs are floated over glyphosate solutions of desired concentration.
# [5] = tested on: Galium mollugo cells; settings: glyphosate-treated Galium mollugo cells; cited from earlier work
# [6] = tested on: Arabidopsis leaf discs; test: Shikimic acid accumulation in Arabidopsis leaf discs; assay type: cell-based, Arabidopsis thaliana; settings: 25 μM glyphosate
# Method: as §3, with “Control plants were sprayed with water containing Activator-G only.” left out
# Shikimic acid analysis—Leaf discs floating on treatment solutions were blotted dry, added to microfuge tubes containing 125 μL of 0.25 N HCL before snap-freezing in liquid nitrogen and storing at −20° C. […] The shikimic acid in the samples was determined by spectrophotometric measurements at 382 nm against a reagent only blank and using a calibration curve of shikimic acid standards. The shikimic acid accumulating in response to glyphosate treatment was calculated as the difference between the reading from mock-treated control leaf discs and the glyphosate-treated discs. Values were expressed as μg/mL shikimic acid. […]
# [7] = tested on: Conyza sumatrensis leaf discs; test: Shikimic acid accumulation in leaf discs; assay type: cell-based
# Method: as §3
# Shikimic acid analysis—Leaf discs floating on treatment solutions were blotted dry, added to microfuge tubes containing 125 μL of 0.25 N HCL before snap-freezing in liquid nitrogen and storing at −20° C. Samples were thawed at room temperature, vortexed for 5 min, and then incubated at 60° C. for 15 min. Aliquots of 25 μL were withdrawn and mixed with 100 μL of 0.25% (w/v) periodic acid/0.25% m-periodate in fresh microfuge tubes. After 30 min incubation at 37° C., 100 μL of 0.6 N NaOH/0.22 M Na2SO3 were added and the volume made up to 1 mL with distilled water. The shikimic acid in the samples was determined by spectrophotometric measurements at 382 nm against a reagent only blank and using a calibration curve of shikimic acid standards. The shikimic acid accumulating in response to glyphosate treatment was calculated as the difference between the reading from mock-treated control leaf discs and the glyphosate-treated discs. Values were expressed as μg/mL shikimic acid.
# [8] = tested on: Arabidopsis shikimate pathway genes; test: Quantitative real-time PCR of shikimate pathway genes in leaf discs; assay type: cell-based, Arabidopsis thaliana
# Method: Gene expression analysis—RNA was extracted from leaf tissues using the Spectrum Plant Total RNA kit (Sigma-Aldrich) according to the manufacturer's instructions. Each sample was a pool of five 1 cm-diameter leaf discs arising from 5 independent plants. First strand cDNA synthesis was performed using 4 μg total RNA and oligod(T) using Promega (Southampton, UK) GoScript Reverse Transcription System. Quantitative real-time polymerase chain reaction was performed using SensiFast reagent kit (Bioline, London, UK) on a Rotorgene-Q (Qiagen, Crawley, UK). Each 20 μL reaction contained 10 μL SensiFast reagent, 5 μL cDNA template that had been diluted 1:8, and 8 pmoles each primer (forward and reverse primers). Cycling conditions used were as follows: denaturation at 95° C. for 2 mins followed by 40 cycles of 95° C. for 10 sec, annealing at 56° C. for 15 sec, and extension at 72° C. for 25 sec. Data analysis was performed using REST2009 (Qiagen, Crawley, UK) using ACTIN2 (At3g18780) and EIF4 (At3g13920) as reference control genes. Triplicate samples per treatment per time-point were analysed in order to calculate a mean and standard deviation.
# Arabidopsis leaf discs were floated on 25 μM glyphosate solutions and incubated in light or total darkness. Samples were harvested at various intervals within 72 h of treatment for quantification of shikimic acid and analysis of gene expression using quantitative real-time PCR. […] All three DAPS genes were differentially regulated, only one of the five putative SK genes responded to glyphosate, both EPSPS genes were responsive, and the chorismate synthase (CS) genes responded as well (FIG. 6). Up-regulation of the shikimate pathway components triggered by blockading flux with glyphosate is a typical metabolic response.
# [9] = tested on: Glyphosate-resistant (GR) and susceptible (GS) C. sumatrensis plants; test: Cut shoots placed in glyphosate solution with or without gluconic acid; assay type: in vivo, Conyza sumatrensis; settings: 100 μM glyphosate only, ten days (FIG. 8)
# Method: Glyphosate-resistant (GR) and susceptible (GS) C. sumatrensis plants were germinated in soil and transferred to solutions of 100 μM glyphosate with or without 5 mM gluconic acid.
# Because the pentose phosphate pathway gene GntK responds to glyphosate, we tested if intermediates in the pathway might also influence glyphosate toxicity (FIG. 8). Glyphosate resistant (GR) and glyphosate susceptible (GS) Conyza sumatrensis were germinated in soil and the shoots cut off at the base of the stem and placed in 2 mL of 100 μM glyphosate with or without gluconic acid at various concentrations. […] Cessation of growth and development of chlorosis are key hallmarks of glyphosate toxicity.
# [10] = glyphosate, dark incubation (FIG. 6)
# [11] = glyphosate-treated leaf discs (FIG. 6)
smiles,measurement,setting,value
NO[C@@H](Cc1ccccc1)C(=O)O [L-α-aminooxy-β-phenylpropionic acid],"phenylalanine accumulation, light versus dark",[1],three-fold higher phenylalanine accumulation in light than in the dark
"O=C([O-])C1=C[C@@H](OP(=O)([O-])[O-])[C@@H](O)[C@H](O)C1.[Na+].[Na+].[Na+] [Shikimate-3-phosphate, Shikimate-3-phosphate trisodium salt]",adverse effects on Arabidopsis,"[2]; 500 μM shikimate-3-phosphate on its own, spray (FIG. 7C)",did not have any adverse effects
"O=C(O)CNCP(=O)(O)O [glyphosate, N-[phosphonomethyl] glycine]",symptoms after foliar application by spraying,"[2]; 2-week-old plants, Gallup 360 formulation (FIG. 7A)",causes chlorosis and then cell death of apical meristems
same,effects on plant growth,"[2]; glyphosate 18 g/ha, spray, 3 weeks (FIG. 7B)",no effects on plant growth
same,effects on Arabidopsis,"[2]; glyphosate 36 g/ha, spray, 3 weeks (FIG. 7B)",very modest effects
same,solubility in water,[3],1.16 % by weight
same,phytotoxic effects at much higher glyphosate concentration,"[4]; 1 mM glyphosate, dark incubation, 3 days (FIG. 2C)",still requires light for phytotoxicity; also recorded: dark-incubation suppressed the phytotoxic effects
same,phytotoxic effects of glyphosate on leaf discs,"[4]; incubated in complete darkness, 100 μM glyphosate, 14 days (FIG. 2A)",protected from the phytotoxic effects
same,viability of leaf discs,"[4]; resistant biotype, 100 μM glyphosate on its own (FIG. 4A)",did not affect the viability
same,shikimate accumulation and cell death by biotype,[4]; susceptible and resistant biotypes (FIG. 3),"activates shikimate accumulation and cell death in the susceptible, but not resistant biotype"
same,"time until cell death (chlorosis, browning) easily visible","[4]; susceptible biotype, leaf discs floated on glyphosate",10 to 14 days
same,estimated cellular shikimic acid,[5],20 to 23 mM
same,shikimic acid accumulation,[6]; dark incubation (FIG. 5),suppressed shikimic acid accumulation
same,shikimic acid accumulation,"[6]; incubated in light, within 72 h (FIG. 5)",significant accumulation of shikimic acid
same,shikimic acid accumulation in leaf tissues,[7]; continuous dark incubation (FIG. 2B),suppressed shikimic acid accumulation
same,"shikimic acid level, susceptible versus resistant biotype","[7]; glyphosate 25-200 μM, one week (FIG. 3B)",significantly higher levels of shikimic acid than the resistant biotype
same,shikimic acid concentration in leaf tissues,"[7]; light-dark cycle, one week after treatment (FIG. 2B)",massive rise
same,maximum concentration of shikimic acid accumulating,"[7]; susceptible C. sumatrensis, within 3 days of exposure to glyphosate",10 to 15 mM
same,expression of At2g16790 in the dark,[8]; [10],also stimulated in the dark
same,glyphosate-induced stimulation of other genes in the dark,[8]; [10],dark incubation suppressed glyphosate-induced stimulation
same,"expression of DAHPS, SK, EPSPS and CS genes","[8]; glyphosate, in light (FIG. 6)",significant changes in the expression
same,change in gene expression of At2g16790,[8]; [11],over 30 fold
same,change in gene expression of all other genes,[8]; [11],below 6 fold
same,growth and chlorosis of GR plants,[9]; GR plants,have grown with expanded healthy and green leaves; also recorded: remained healthy and green
same,growth and chlorosis of GS plants,[9]; GS plants,"stunted and chlorotic; also recorded: stopped growing and developed chlorosis, which eventually led to tissue death"
"O=C(O)C1=C[C@@H](O)[C@@H](O)[C@H](O)C1 [shikimic acid, Shikimic acid]",breaking of glyphosate resistance at lower shikimic acid concentrations,"[4]; with glyphosate, shikimic acid below 1-5 mM, 7 days (FIG. 4B)",unable to
same,shikimic acid concentrations able to break glyphosate resistance,"[4]; with glyphosate, within 7 days of application (FIG. 4B)",1 to 5 mM
same,phytotoxicity of shikimic acid on its own,"[4]; without glyphosate, up to 15 mM",not phytotoxic; also recorded: did not cause any phytotoxicity
